Assay [1] deals with enzyme from P. putida ATCC 53552 (lipase GC-1065). Briefly: pH-stat assay of triglyceride emulsion hydrolysis; critical oil-to-surfactant ratio. Format: biochemical, Pseudomonas putida. Particulars: for Enzyme Activity (initial rate of hydrolysis): enzyme 2 ppm; for Specific Activity determined from initial rates, GC-1065, High / Critical Ratio, GC-1065, High / Critical Ratio, GC-1065, Low / Specific Activity determined from initial rates, GC-1065, Low: trioctanoin emulsions; for Specific Activity determined from initial rates, GC-1065, High: high surfactant conc. as E41; for Critical Ratio, GC-1065, High / Critical Ratio, GC-1065, Low: lipase ~2 ppm; for Critical Ratio, GC-1065, High: high surfactant conc.: SDS 10 mM, C12 LAS 5 mM, Neodol 25-9 5 mM, Neodol 25-3S 10 mM, Surfonic JL-80X 5 mM, Triton X-100 10 mM, C16 DAPS 10 mM; for Critical Ratio, GC-1065, Low: low surfactant conc.: SDS 2 mM, Surfonic JL-80X 0.5 mM, Triton X-100 2 mM, C16 DAPS 0.5 mM; for Specific Activity determined from initial rates, GC-1065, Low: low surfactant conc. as E40. An excerpt:
(§1) To determine the critical ratio for any specific enzyme-surfactant combination, aliquots of an aqueous solution, each containing a determined (constant) amount of the enzyme which is effective in the absence of any surfactant to hydrolyze the triglycerides in an oily stain on a determined (constant) amount of a fabric soiled by a determined (constant) amount of a triglyceride oil, are mixed with a determined (constant) amount of a surfactant which is within the range of the amounts conventionally present in home laundry solutions, e.g., from about 0.2 to 1.5. mM, and which is effective to inhibit the hydrolyzing activity of the enzyme. To the aliquots are added a hydrolysis activator, e.g., trioctanoin, in increasing amounts and the hydrolyzing activity of the enzyme in the various solutions is determined.
(§2) The experiments determining enzyme activity, such as those set out in Tables IA and IB, were carried out as follows:
(§3) The desired amount of triglyceride was weighed into an appropriate size beaker, on a Mettler balance (model number AE163). The corresponding amount of surfactant was added to the triglyceride, from a previously prepared aqueous surfactant stock solution, and the triglyceride and surfactant mixed manually. The sample was then adjusted to the desired weight using doubly distilled H2 O. Emulsification of the sample was carried out, prior to assaying enzyme activity, with a probe sonicator (Braun-Sonic model 2000), on ice, for approx. 2 minutes.
(§4) (ii) Enzyme Activity Measurement:
(§5) This was achieved by monitoring the rate of acid liberation, from the enzymatic hydrolysis of the triglycerides in the emulsion. The assay was initiated by adding approx. 2 ppm lipase to 10 ml of the prepared emulsion. The acid liberated was monitored by autotitration, on a Radiometer pH-stat (model number ABU80) to an endpoint of a pH of 10. Initial rates were recorded for the first 5 minutes of the reaction, and the reaction rates reported as μmole H^+ titrated . min ^-1 mgE^-1. Occasionally enzyme activity is reported as % total oil hydrolyzed in 14 min. In these examples, the reaction was allowed to run for 14 min. and the amount of acid titrated recorded. The % total oil (triglyceride) hydrolyzed was then calculated by dividing the recorded value with the theoretically calculated value assuming three equivalents of oleic acid was produced for each triglyceride equivalent. All assays were run at ambient temperatures.

For a further assay, the target named is T1, Enzyme Amano P (Burkholderia cepacia, UniProt P22088).
T1 construct: purchased Amano Co
The description is as above. In kind it is biochemical, P. fluorescens. Particulars: trioctanoin 5 mm + hexadecane 10 mm, Neodol 25-3S 0.5, system ratio 40.
Text: as §1, §2, §3, §4, §5

Where [2] appears, read: C12 LAS 1 mM, Neodol 25-9 0.5 mM, Neodol 25-3S 2 mM.
The mark [3] stands for this setting: Table II, trioctanoin, surfactant conc.: SDS 2 mM, C12 LAS 1 mM, Neodol 25-3S 2 mM, Neodol 25-9 0.5 mM, Surfonic JL80X 0.5 mM, Triton X100 2 mM.

Results on five compounds are retold here after patent US5223169A, “Hydrolase surfactant systems and their use in laundering” (priority 1991, dated 1993).

Bounds are passed on as bounds.

T1 sequence (P22088 45-364): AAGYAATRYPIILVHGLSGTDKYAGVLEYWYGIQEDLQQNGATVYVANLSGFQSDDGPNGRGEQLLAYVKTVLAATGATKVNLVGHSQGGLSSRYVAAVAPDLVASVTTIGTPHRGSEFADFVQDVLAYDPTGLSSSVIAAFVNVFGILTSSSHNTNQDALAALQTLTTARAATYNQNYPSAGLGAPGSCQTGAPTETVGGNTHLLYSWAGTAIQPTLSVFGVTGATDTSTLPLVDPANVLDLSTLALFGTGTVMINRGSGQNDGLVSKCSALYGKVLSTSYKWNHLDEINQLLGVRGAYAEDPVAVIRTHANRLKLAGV

For the compound `CCCCCCCCCCCCCCCC` [Hexadecane, hexadecane], the “Enzyme Activity” value in assay [1] (triolein 0.3 mM + hexadecane 1.2 mM, Surfonic JL-80X 0.3 mM, system ratio 5) is 8 μmole H^+ released min^-1 mgE^; in assay [1] (triolein 0.3 mM + hexadecane 1.2 mM, Surfonic JL-80X 0.3 mM, system ratio 5, listed as hexadecane) it was “active”; on Enzyme Amano P it was 45 μmole H^+ released min^-1 mgE^.

Take `CCCCCCCCCCCCCCCC[N+](C)(C)CCCS(=O)(=O)[O-]` [C16 DAPS]: the “Enzyme Activity (initial rate of hydrolysis)” value was 0 μmole H^+ released min^-1 mgE^ in assay [1] (trioctanoin 0.5 mM, surfactant 0.5 mM, system ratio 1); 0 μmole H^+ released min^-1 mgE^ in assay [1] (trioctanoin 2.5 mM, surfactant 0.5 mM, system ratio 5); 0 μmole H^+ released min^-1 mgE^ in assay [1] (trioctanoin 5 mM, surfactant 0.5 mM, system ratio 10); 334 μmole H^+ released min^-1 mgE^ in assay [1] (trioctanoin 10 mM, surfactant 0.5 mM, system ratio 20); 0 μmole H^+ released min^-1 mgE^ in assay [1] (trioctanoin 10 mM, surfactant 10 mM, system ratio 1); 405 μmole H^+ released min^-1 mgE^ in assay [1] (trioctanoin 15 mM, surfactant 0.5 mM, system ratio 30). Moreover, the “Enzyme Activity (initial rate of hydrolysis)” value in assay [1] (trioctanoin 20 mM, surfactant 0.5 mM, system ratio 40) is recorded as 370 μmole H^+ released min^-1 mgE^; in assay [1] (trioctanoin 50 mM, surfactant 10 mM, system ratio 5) it was 0 μmole H^+ released min^-1 mgE^; in assay [1] (trioctanoin 200 mM, surfactant 10 mM, system ratio 20), 398 μmole H^+ released min^-1 mgE^; in assay [1] (trioctanoin 300 mM, surfactant 10 mM, system ratio 30) it was 370 μmole H^+ released min^-1 mgE^; in assay [1] (trioctanoin 400 mM, surfactant 10 mM, system ratio 40), 417 μmole H^+ released min^-1 mgE^. The “critical ratio (system ratio of oil to surfactant at which enzymatic activity begins)” value in assay [1] (trioctanoin as oil, surfactant 0.5 and 10 mM (Table IA)) was 10-20. The “Specific Activity determined from initial rates, GC-1065, High” value in assay [1] turned out to be 450 μeq acid/min.mg. Also, in assay [1], the “Critical Ratio, GC-1065, High” value is 10-20. Moreover, the “Critical Ratio, GC-1065, Low” value in assay [1] (setting [2]) is on record as 10-20. The “Specific Activity determined from initial rates, GC-1065, Low” value in assay [1] came out at 450 μeq acid/min.mg.

Regarding `CCCCCCCCCCCC(=O)N(CC)CC` [N,N-diethyldodecanamide], the “Enzyme Activity” value was < 5 μeq of fatty acid produced in 14 minutes in assay [1] (no trioctanoin, N,N-diethyldodecanamide 10.0 mm, Neodol 25-9 0.5 mm); 5 μeq of fatty acid produced in 14 minutes in assay [1] (trioctanoin 2.5 mm, N,N-diethyldodecanamide 2.5 mm, Neodol 25-9 0.5 mm); 12 μeq of fatty acid produced in 14 minutes in assay [1] (trioctanoin 2.5 mm, N,N-diethyldodecanamide 5.0 mm, Neodol 25-9 0.5 mm); 19 μeq of fatty acid produced in 14 minutes in assay [1] (trioctanoin 2.5 mm, N,N-diethyldodecanamide 7.5 mm, Neodol 25-9 0.5 mm).

Take `CCCCCCCC/C=C\CCCCCCCC(=O)[O-].[Na+]` [Na Oleate, sodium oleate]: the “Enzyme Activity” value in assay [1] (triolein substrate, surfactant 0.3 mM, system ratio 1) is recorded as 0 μmole H^+ titrated . min ^-1 m; in assay [1] (triolein substrate, surfactant 0.3 mM, system ratio 5), 0 μmole H^+ titrated . min ^-1 m; in assay [1] (triolein substrate, surfactant 0.3 mM, system ratio 10), 0 μmole H^+ titrated . min ^-1 m; in assay [1] (triolein substrate, surfactant 0.3 mM, system ratio 20) it was 60 μmole H^+ titrated . min ^-1 m; in assay [1] (triolein substrate, surfactant 0.3 mM, system ratio 30), 90 μmole H^+ titrated . min ^-1 m.

As for Triton X-100, in assay [1] (setting [3]), the “Critical Ratio” value is given as 10-15 and the “Enzyme Activity” value is recorded as 450 μmole H^+ released min^-1 mgE^. In assay [1], the “Specific Activity determined from initial rates, GC-1065, High” value is 400 μeq acid/min.mg; the “Critical Ratio, GC-1065, High” value is reported as 15-20; the “Specific Activity determined from initial rates, GC-1065, Low” value was determined as 450 μeq acid/min.mg. For the same compound, in assay [1] (setting [2]), the “Critical Ratio, GC-1065, Low” value was 10-15.
